In EPA's ToxValDB 9.5 (doi:10.2903/j.efsa.2006.75r):
In brackets after ≈: the same amount, converted by molar mass.

Columns and labels:
[1] = chronic
[2] = tested on: Aphidius rhopalosiphi; conditions: chronic/long-term; reproduction
[3] = tested on: Apis mellifera; conditions: acute, mortality
[4] = tested on: Canidae; conditions: short-term; duration: 28 days; oral; Dog Other; clinical chemistry
[5] = tested on: Colinus virginianus
[6] = tested on: Coturnix japonica; conditions: acute; oral; diet; mortality
[7] = tested on: Daphnia magna; conditions: chronic/long-term; duration: 21 days; reproduction
[8] = tested on: Lepomis macrochirus; conditions: acute; duration: 96 hours; mortality
[9] = tested on: Mus musculus; conditions: oral
[10] = tested on: Oncorhynchus mykiss; conditions: chronic/long-term; duration: 96 days; growth
[11] = tested on: Rattus norvegicus; conditions: for NOAEL: clinical chemistry
[12] = tested on: Tagia sp.; conditions: acute; mortality
[13] = tested on: Aphidius rhopalosiphi; assay: LR50; higher = less toxic; conditions: acute; duration: 48 hours; mortality

Question: Which NOEC [1] does the source give for COP(=S)(OC)SCN1C(=O)c2ccccc2C1=O [Phosmet] here?
Answer: 0.001 mg/L

Question: And the LEL [2]?
Answer: 1.41 g/ha

Question: What about the LD50 ([3]; duration: 48 hours, dermal) of the same compound?
Answer: 0.22 µg/piece

Question: And the LD50 ([3]; oral, unspecified)?
Answer: 0.37 µg/piece

Question: What about the NOAEL [4] of the same compound?
Answer: 2 mg/kg-day

Question: And the LD50 ([5]; acute, oral, mortality)?
Answer: 57 mg/kg

Question: What about the NOEC ([5]; reproduction developmental) of the same compound?
Answer: 7.5 mg/kg-day

Question: And the LC50 [6]?
Answer: 406 mg/kg-day

Question: What about the NOEC [7] of the same compound?
Answer: 0.00078 mg/L

Question: And the LC50 [8]?
Answer: 0.0197 µg/mL (≈ 0.0621 µM)

Question: And the LOAEL ([9]; chronic, duration: 2 years, diet, neurology)?
Answer: 1 mg/kg-day

Question: And the NOAEL ([9]; short-term, duration: 28 days, clinical chemistry)?
Answer: 2 mg/kg-day

Question: And the NOEC [10]?
Answer: 0.0032 mg/L

Question: What about the NOAEL ([11]; acute) of the same compound?
Answer: 4.5 mg/kg-day

Question: And the LD50 ([11]; acute, oral, mortality)?
Answer: 113 mg/kg

Question: What about the NOAEC ([11]; reproduction developmental) of the same compound?
Answer: 1.5 mg/kg-day

Question: And the NOAEL ([11]; subchronic, duration: 13 weeks)?
Answer: 1.5 mg/kg-day

Question: What about the NOAEL ([11]; subchronic, duration: 90 days, oral) of the same compound?
Answer: 2 mg/kg-day

Question: What about the LC50 [12] of the same compound?
Answer: 104 mg/kg

Question: What about the LR50 [13] of the same compound?
Answer: 1.95 g/ha
